Measurements from patent publication US20250152605A1, “METHOD AND DRUG FOR TREATING NEURONAL CEROID LIPOFUSCINOSIS” (priority 2021, published 2025).

How the values were obtained:
[1] = Drug concentration in mouse brain tissue (UPLC-MS/MS); assay type: in vivo; settings: Cln3 KO mice
Description: In order to determine whether Compound G can pass through the blood-brain barrier and its drug concentration in the brain tissue of mice, the following experiment was performed: Compound G was dissolved in drinking water at a concentration of 1 mg/mL and fed to mice, and a solvent was added to the drinking water of control mice; mice treated with Compound G were removed at 8 different random time points, and after Avertin anesthesia, their hearts were perfused with 20 mL dPBS to rinse the blood in the mice; non-dosed mice were also perfused in the same manner as blank tissue; whole mouse brain tissue was removed, weighed, snap frozen in liquid nitrogen and ground using Mixer Mill (RETSCH MM400) with a shaking frequency of 26 beats/sec for 5 minutes; a small molecule with similar structural properties to Compound G was prepared in advance as an internal reference (denoted IS) and IS was dissolved in 80% aqueous methanol to 100 ng/ml. […]
After using dPBS to completely perfuse the systemic blood, the mice were euthanized and the brain tissues thereof were taken out. The drug concentrations of Compound G in the mouse brain tissues were measured.

[2] = system: CLN3^Δex7/8 human neurons; test: qRT-PCR of autophagy-related and lysosomal genes in human neurons; assay type: cell-based; settings: 6 hours
Description: The cells in the cell-culture dish were collected, extracted using AxyPrep Total RNA Mini Prep Kit or Qiagen AxyPrep Total RNA Mini Prep Kit, and the extracted RNA concentration is measured using Nanodrop; the extracted mRNA was reverse transcribed into cDNA by Transgen's EasyScript® One-Step gDNA Removal and cDNA Synthesis SuperMix and the primers used for reverse transcription were Oligo dT primers; the completion of reverse transcription followed by qRT-PCR reaction through PerfectStart™ Green qPCR SuperMix to detect the expression of the target gene; the qRT-PCR reaction was performed on the Bio-Rad CFX96 Real-Time PCR system; see Table 2 and Table 3 for the 20 μL qRT-PCR reaction system and reaction procedures; data analysis was performed in Prism 7 software using the 2^−ΔΔCt process with GAPDH as internal reference for relative quantification of the expression of the target gene.
The effect of Compound G on the transcription level of the autophagy-related genes and the lysosomal genes was further detected in the induced CLN3^Δex7/8 human neural stem cells and neurons.

cathepsin D = test: Intracellular cathepsin D activity; assay type: cell-based, human; settings: CLN3^Δex7/8 neurons
Description: The activity of intracellular protease cathepsin D was measured using Abcam's Cathepsin D Activity Assay kit. Each sample was prepared in more than 3 replicates. […]

With `C/C=C1\C(=O)C[C@H]2[C@@H]3CCC4=CC(=O)CC[C@]4(C)[C@H]3CC[C@]12C` [Compound G, (Z)-guggulsterone] the “average concentration in the mouse brain” value ([1]; 1 mg/mL in drinking water, different time points (n=8)) was 814.74±834.19 ng/g brain tissue, the “penetration of the blood-brain barrier” value ([1]; drinking water) was “could penetrate the blood-brain barrier” and the “expression of the autophagy-related genes or the lysosomal genes overall” value [2] was “did not significantly increase”. The “activity of cathepsins D (fluorescence intensity)” value (cathepsin D) was “significantly increased”.
